The target in test [1] is T1, human LPA3 (Homo sapiens, UniProt Q9UBY5).
T1 construct: The full-length cDNA fragment for human LPA3 was obtained by PCR from the vector
T1 sequence (Q9UBY5 1-353): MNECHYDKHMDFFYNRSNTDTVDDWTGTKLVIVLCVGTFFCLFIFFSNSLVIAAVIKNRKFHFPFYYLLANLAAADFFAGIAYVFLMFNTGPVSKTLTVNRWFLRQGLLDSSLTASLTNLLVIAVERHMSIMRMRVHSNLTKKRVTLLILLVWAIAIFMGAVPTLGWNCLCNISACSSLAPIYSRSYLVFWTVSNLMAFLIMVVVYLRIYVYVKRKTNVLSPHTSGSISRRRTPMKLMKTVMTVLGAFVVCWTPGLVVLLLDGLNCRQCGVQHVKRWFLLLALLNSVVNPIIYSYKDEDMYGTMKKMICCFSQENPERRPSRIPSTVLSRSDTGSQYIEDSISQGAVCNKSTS
The test can be described thus: HLPA3 Ca Flux assay (LPA3 calcium flux assay). Format: cell-based. To be noted: CHO cells expressing human LPA3, 10 nM LPA. On the procedure: A vector containing the human LPA3 receptor cDNA was obtained from the Missouri S&T cDNA Resource Center (www.cdna.org). The full-length cDNA fragment for human LPA3 was obtained by PCR from the vector. The nucleotide sequence of the cloned human LPA3 was determined by sequencing and confirmed to be identical to the published human LPA3 sequence (NCBI accession number NM 012152). The cDNA was cloned into the pcDNA5/FRT expression plasmid and transfected in CHO cells using lipofectamine 2000 (Invitrogen Corp., USA). Clones stably expressing human LPA3 were selected using hygromycin and identified as cells that show Ca-influx in response to LPA.
Human LPA1 or LPA3 expressing CHO cells are seeded at 20,000-45,000 cells per well in a 96-well poly-D-lysine coated plate one or two days before the assay. Prior to the assay, the cells are washed once with PBS and then cultured in serum-free media overnight. On the day of the assay, a calcium indicator dye (Calcium 4, Molecular Devices) in assay buffer (HBSS with Ca^2+ and Mg^2+ and containing 20 mM Hepes and 0.3% fatty-acid free human serum albumin) is added to each well and incubation continued for 1 hour at 37° C. […] Cells are the stimulated by the addition of 10 nM LPA and intracellular Ca^2+ measured using the Flexstation 3 (Molecular Devices). IC50s are determined using Graphpad prism analysis of drug titration curves.

For test [2], the target named is T2, human LPA1 (Homo sapiens, UniProt Q92633).
T2 construct: the full-length cDNA for human LPA1 was obtained by PCR of the reverse transcription reaction; expressed in transfected cells
The test can be described thus: HLPA1 Ca Flux assay (LPA1 calcium flux assay). Format: cell-based. To be noted: CHO cells expressing human LPA1, 10 nM LPA. The procedure: A 1.1 kb cDNA encoding the human LPA1 receptor was cloned from human lung. Human lung RNA (Clontech Laboratories, Inc. USA) was reverse transcribed using the RETROscript kit (Ambion, Inc.) and the full-length cDNA for human LPA1 was obtained by PCR of the reverse transcription reaction. The nucleotide sequence of the cloned human LPA1 was determined by sequencing and confirmed to be identical to the published human LPA1 sequence (An et al. Biochem. Biophys. Res. Commun. 231:619 (1997). The cDNA was cloned into the pcDNA5/FRT expression plasmid and transfected in CHO cells using lipofectamine 2000 (Invitrogen Corp., USA). Clones stably expressing human LPA1 were selected using hygromycin and identified as cells that show Ca-influx in response to LPA.
Human LPA1 or LPA3 expressing CHO cells are seeded at 20,000-45,000 cells per well in a 96-well poly-D-lysine coated plate one or two days before the assay. Prior to the assay, the cells are washed once with PBS and then cultured in serum-free media overnight. On the day of the assay, a calcium indicator dye (Calcium 4, Molecular Devices) in assay buffer (HBSS with Ca^2+ and Mg^2+ and containing 20 mM Hepes and 0.3% fatty-acid free human serum albumin) is added to each well and incubation continued for 1 hour at 37° C. 10 μl of test compounds in 2.5% DMSO are added to the cells and incubation continued at room temperature for 30 minutes. Cells are the stimulated by the addition of 10 nM LPA and intracellular Ca^2+ measured using the Flexstation 3 (Molecular Devices). IC50s are determined using Graphpad prism analysis of drug titration curves.
(A change in cytosolic calcium serves as a functional read-out for many receptors and channels.)

Test [3] relates to Female C57BL/6 mice. The test can be described thus: Mouse unilateral ureteral obstruction kidney fibrosis model. Format: in vivo. The conditions noted are these: as compared to the untreated group. On the procedure:
Female C57BL/6 mice (Harlan, 20-25 g) housed 4/cage will be given free access to food and water and allowed to acclimate for at least 7 days prior to test initiation. After the habituation phase, mice undergo unilateral ureteral obstruction (UUO) surgery or sham to left kidney. Briefly, a longitudinal, upper left incision is performed to expose the left kidney. The renal artery is located and 6/0 silk thread is passed between the artery and the ureter. The thread is looped around the ureter and knotted 3 times insuring full ligation of ureter. The kidney is returned to abdomen, the abdominal muscle is sutured and the skin is stapled closed. Mice are returned to their cages and monitored daily for the duration of the experiment. Test compound or vehicle is delivered po, ip or sc daily. The route and frequency of dosing is based on previously determined pharmacokinetic properties. All animals are sacrificed using inhaled isoflurane 4, 8 or 14 days after UUO surgery. […] Kidney tissue homogenates are analyzed for collagen levels using Sircol (Biocolor Ltd, UK). Fixed kidney tissue is also stained using hematoxylin and eosin (H&E) and trichrome and kidney fibrosis is determined by quantitative, computer-assisted densitometry of collagen in […] tissue sections using light microscopy. […] The resulting data are plotted using Graphpad prism and statistical differences between groups determined.

The subject of test [4] is Female C57BL/6 mice. The test can be described thus: Mouse carbon tetrachloride (CCl4)-induced liver fibrosis model. It is filed as in vivo. The conditions noted are these: for collagen deposition in the liver: as compared to the untreated group. The procedure: Female C57BL/6 mice (Harlan, 20-25 g) housed 4/cage are given free access to food and water and allowed to acclimate for at least 7 days prior to test initiation. After the habituation phase, mice receive CCl4 (0.5-1.0 ml/kg body weight) diluted in corn oil vehicle (100 μL volume) via i.p. injection twice a week for 4-6 weeks. (Higazi, A. A. et al., Clin Exp Immunol. 2008 April; 152(1):163-73. Epub 2008 Feb. 14.). Control mice receive an equivalent volume of corn oil vehicle only. Test compound or vehicle is delivered po, ip or sc daily. At the end of the study (4-6 weeks after first i.p. injection of CCl4), mice are sacrificed using inhaled isoflurane and blood is drawn via cardiac puncture for subsequent analysis of ALT/AST levels. The liver is harvested, and one half of the liver is frozen at −80° C. and the other half is fixed in 10% neutral buffered formalin for histological assessment of liver fibrosis using light microscopy (10× magnification). Liver tissue homogenates are analyzed for collagen levels using Sircol (Biocolor Ltd, UK). Fixed Liver tissue is stained using hematoxylin and eosin (H&E) and trichrome and liver fibrosis is determined by quantitative, computer-assisted densitometry of collagen in liver tissue sections using light microscopy. Plasma and liver tissue lysates are also analyzed for concentrations of inflammatory, pro-fibrotic and tissue injury biomarkers including transforming growth factor β1, hyaluronic acid, tissue inhibitor of metalloproteinase-1, matrix matelloproteinase-7, connective tissue growth factor and lactate dehydrogenase activity, using commercially available ELISA. The resulting data are plotted using Graphpad prism and statistical differences between groups determined.

Test [5] has as its system Female CD-1 mice. The test can be described thus: Bleomycin-induced lung fibrosis model in mice. It is filed as in vivo. To be noted: acute setting (3 day). The text has this: Female CD-1 mice (Harlan, 25-30 g) are housed 4 per cage, given free access to food and water and allowed to acclimate for at least 7 days prior to test initiation. After the habituation phase, mice are lightly anesthetized with isoflurane (5% in 100% O2) and administered with bleomycin sulfate (0.01-5 U/kg, Henry Schein) via intratracheal instillation (Cuzzocrea S et al. Am J Physiol Lung Cell Mol. Physiol. 2007 May; 292(5):L1095-104. Epub 2007 Jan. 12.). Mice are returned to their cages and monitored daily for the duration of the experiment. Test compound or vehicle is delivered po, ip or sc daily. The route and frequency of dosing is based on previously determined pharmacokinetic properties. […] BALF is analyzed for concentrations of inflammatory, pro-fibrotic and tissue injury biomarkers including transforming growth factor β1, hyaluronic acid, tissue inhibitor of metalloproteinase-1, matrix matelloproteinase-7, connective tissue growth factor and lactate dehydrogenase activity, using commercially available ELISA. […] Total cell counts are then obtained using a Hemavet hematology system (Drew Scientific, Wayne, Pa.) and differential cells counts are determined using Shandon cytospin (Thermo Scientific, Waltham, Mass.). […] The data are plotted using Graphpad prism and statistical differences between groups determined.

The test system of test [6] is Unilateral ureteral obstruction (UUO; animal model of renal fibrosis) mice. To be noted: LPA1 (−/−) mice: renal fibrosis significantly attenuated; cited from earlier work.
The test system of test [7] is highly peritoneal metastatic pancreatic cancer cell line. The conditions noted are these: cited from earlier work.
The test system of test [8] is pancreatic cancer cell lines. To be noted: cited from earlier work.
For test [9] the following is noted: cited from earlier work.

Where only a bound is given, the exact number is not on record here.

The values below come from US20110301211A1, “ANTAGONISTS OF LYSOPHOSPHATIDIC ACID RECEPTORS” (priority 2008, published 2011).

The IC50 is the concentration that gives 50% inhibition.

T2 sequence (Q92633 whole entry): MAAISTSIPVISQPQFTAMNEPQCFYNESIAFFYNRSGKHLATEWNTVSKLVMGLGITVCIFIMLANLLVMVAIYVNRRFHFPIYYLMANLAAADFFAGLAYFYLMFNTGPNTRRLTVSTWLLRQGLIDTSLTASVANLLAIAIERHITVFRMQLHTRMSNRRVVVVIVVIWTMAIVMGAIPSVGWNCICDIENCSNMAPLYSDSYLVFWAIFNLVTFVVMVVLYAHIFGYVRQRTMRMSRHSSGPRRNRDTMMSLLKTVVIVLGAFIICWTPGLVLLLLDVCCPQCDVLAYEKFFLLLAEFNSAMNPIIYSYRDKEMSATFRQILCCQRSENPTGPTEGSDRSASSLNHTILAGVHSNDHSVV

Consider `COc1ccccc1C(C)OC(=O)Nc1c(C)noc1-c1ccc(-c2ccc(CC(=O)O)cc2)cc1` (centres unmarked) [Compound 6, (4′-{4-[1-(2-Methoxy-phenyl)-ethoxycarbonylamino]-3-methyl-isoxazol-5-yl}-biphenyl-4-yl)-acetic Acid], for which the IC50 in [1] fell in the range of 1 to 50 µM.

For `COc1ccc(CC(=O)O)cc1-c1ccc(-c2onc(C)c2NC(=O)OC(C)c2ccccc2Cl)cc1` (centres unmarked) [Compound 7, (4′-{4-[1-(2-Chloro-phenyl)-ethoxycarbonylamino]-3-methyl-isoxazol-5-yl}-6-methoxy-biphenyl-3-yl)-acetic Acid], the IC50 in test [2] fell in the range of 1 to 50 µM.

Take `Cc1noc(-c2ccc(-c3cccc(CC(=O)O)c3)cc2)c1NC(=O)OC(C)c1ccccc1Cl` (centres unmarked) [Compound 12, (4′-{4-[1-(2-Chloro-phenyl)-ethoxycarbonylamino]-3-methyl-isoxazol-5-yl}-biphenyl-3-yl)-acetic acid]: in test [1], the IC50 was 0.3 to 1 µM.

On to `Cc1noc(-c2ccc(-c3ccc(CC(=O)O)cc3)cc2)c1NC(=O)O[C@H](C)c1ccccc1Cl` [Compound 27, (4′-{4-[(R)-1-(2-Chloro-phenyl)-ethoxycarbonylamino]-3-methyl-isoxazol-5-yl}-biphenyl-4-yl)-acetic acid], for which the “reduction of kidney fibrosis” value in test [3] is “at least 20%”. For the same compound, the “effect on collagen deposition compared with pirfenidone” value in [4] (30 mg/kg, po, qd) is given as “same effect on collagen deposition as pirfenidone”. For the same compound, the “collagen deposition in the liver” value in test [4] was “significantly reduced”. Also, the “tissue inhibitor of metalloproteinase-1 (TIMP-1; pro-fibrotic marker) concentrations in BALF” value in [5] was “significantly reduced”.

As to `Cc1noc(-c2ccc(-c3ccc(CC(=O)O)cc3)cc2)c1NC(=O)O[C@H](C)c1ccccc1` [Compound 37], the “reduction of kidney fibrosis” value in test [3] is listed as 55%. Further, the “collagen deposition in the liver” value in test [4] is recorded as “significantly reduced”. The “tissue inhibitor of metalloproteinase-1 (TIMP-1; pro-fibrotic marker) concentrations in BALF” value in test [5] is recorded as “reduced”.

Regarding `COc1ccc(C(C)OC(=O)Nc2c(C)noc2-c2ccc(-c3ccc(CC(=O)O)cc3)cc2)c(F)c1` (centres unmarked) [Compound 40, (4′-{4-[1-(2-Fluoro-4-methoxy-phenyl)-ethoxycarbonylamino]-3-methyl-isoxazol-5-yl}-biphenyl-4-yl)-acetic acid], the IC50 in test [2] lay in the range of 1 to 50 µM.

Turning to `Cc1noc(-c2ccc(-c3cccc(CC(=O)O)c3)cc2)c1NC(=O)O[C@H](C)c1ccccc1` [Compound 43, {4′-[3-Methyl-4-((R)-1-phenyl-ethoxycarbonylamino)-isoxazol-5-yl]-biphenyl-3-yl}-acetic Acid], the IC50 in test [2] is 0.3 to 1 µM.

For `Cc1noc(-c2ccc(-c3ccc(CC(=O)NCCS(=O)(=O)O)cc3)cc2)c1NC(=O)O[C@H](C)c1ccccc1` [Compound 67, 2-(2-{4′-[3-Methyl-4-((R)-1-phenyl-ethoxycarbonylamino)-isoxazol-5-yl]-biphenyl-4-yl}-acetylamino)-ethanesulfonic Acid], the IC50 in [2] was below 0.3 µM.

`Cc1noc(-c2ccc(CSCCC(=O)O)cc2)c1NC(=O)OC(C)c1ccccc1Cl` (centres unmarked) [Ki16425]: the “development of renal fibrosis in UUO mice” value in [6] is on record as “closely resembled the LPA1 (−/−) mice”. Further, the “LPA-induced and ascites-induced invasion activity” value in [7] is recorded as “blocked”. In addition, in test [8], the “in vitro migration in response to LPA and peritoneal fluid (ascites) from pancreatic cancer patients” value is on record as “effectively blocked”. In addition, the “metastasis to bone in vivo” value in [9] is “inhibit”.
